Glass transition temperature data for 82 compounds are collected here from the PolyMetriX glass transition set.

For `*/C(=N\c1ccccc1)c1ccc(-c2ccc(*)cc2)cc1` (repeat unit), the glass transition temperature is 225.00 °C.
Then `*C(=O)c1ccc(C(=O)N(*)c2ccccc2)cc1` (repeat unit), with 179.00 °C; and `*C(=O)c1cccc(C(=O)N2CCN(*)CC2)c1` (repeat unit), with 214.50 °C.
Take `*C(=O)c1ccccc1-c1ccccc1C(=O)N1CCN(*)CC1` (repeat unit): the glass transition temperature was 193.00 °C.
Under `*CC(*)C(=O)Oc1ccc(C(=O)Oc2ccc(OC(=O)c3ccc(OCCCCC)cc3)cc2)cc1` (repeat unit) stands 48.00 °C; under `*CC(*)C(=O)Oc1ccc(C(=O)c2ccc(Cl)cc2)cc1` (repeat unit), 78.00 °C.
With `*CC(*)C(=O)Oc1ccc(C(C)(C)C)cc1` (repeat unit), the glass transition temperature turned out to be 71.00 °C.
Under `*CC(*)C(=O)Oc1ccc(OC)cc1` (repeat unit) stands 50.50 °C.
In turn, `*CC(*)C(=O)Oc1cccc(C(=O)OCC)c1` (repeat unit) returned a glass transition temperature of 24.00 °C.
Under `*CC(*)C(=O)Oc1cccc(C)c1` (repeat unit) stands 24.50 °C; under `*CC(*)C(=O)Oc1cccc2ccccc12` (repeat unit), 85.00 °C; under `*CC(*)C(=O)c1ccc(Br)c(OC)c1` (repeat unit), 44.00 °C.
Under `*CC(*)C(=O)c1ccc(CCC)cc1` (repeat unit) stands 44.00 °C.
Then `*CC(*)C(C)=O` (repeat unit), with 115.00 °C.
Take `*CC(*)C1CCCCC1C` (repeat unit): the glass transition temperature is 186.00 °C.
Under `*CC(*)CC1CCCC1` (repeat unit) stands 60.00 °C; under `*CC(*)CCCCCCCCCCCC` (repeat unit), 10.00 °C.
As to `*CC(*)CCCCCCCCCI` (repeat unit), the glass transition temperature is -6.00 °C.
With `*CC(*)CCI` (repeat unit), the glass transition temperature came to 70.00 °C.
`*CC(*)CN` (repeat unit) registered a glass transition temperature of 190.00 °C.
Under `*CC(*)CNc1ccc([N+](=O)[O-])cc1[N+](=O)[O-]` (repeat unit) stands 160.00 °C.
Then `*CC(*)NC=O` (repeat unit), with 150.00 °C; and `*CC(*)OC(=O)C(C)(C(C)C)C(C)C` (repeat unit), with 120.00 °C; and `*CC(*)OC(=O)C(Cl)(Cl)Cl` (repeat unit), with 59.00 °C.
Then `*CC(*)OC(=O)CC1CCCC1` (repeat unit), with -3.00 °C; and `*CC(*)OC(=O)CCCC(=O)c1ccccc1` (repeat unit), with 45.00 °C.
In turn, `*CC(*)OC(=O)CCl` (repeat unit) returned a glass transition temperature of 20.5 °C.
On to `*CC(*)OC(=O)OC([2H])([2H])[2H]` (repeat unit), for which the glass transition temperature stood at 55.00 °C.
Under `*CC(*)OC(=O)OCCC(F)(F)C(F)(F)C(F)(F)C(F)(F)C(F)(F)C(F)(F)F` (repeat unit) stands 37.00 °C.
Then `*CC(*)OC(=O)c1ccc(Br)cc1` (repeat unit), with 85.50 °C; and `*CC(*)OC(=O)c1ccc(C(C)(C)C)cc1` (repeat unit), with 121.00 °C.
Then `*CC(*)OC(=O)c1ccc(C)cc1` (repeat unit), with 73.50 °C.
Turning to `*CC(*)OC(=O)c1ccc(CC)cc1` (repeat unit), the glass transition temperature was 57.00 °C.
Then `*CC(*)OC(=O)c1ccc(Cl)cc1` (repeat unit), with 70.2 °C; and `*CC(*)OC(=O)c1ccc(OC(=O)CCC)cc1` (repeat unit), with 61.00 °C; and `*CC(*)OC(=O)c1ccc(OC(C)=O)cc1` (repeat unit), with 76.00 °C.
Under `*CC(*)OC(=O)c1cccc(OC)c1` (repeat unit) stands 44.00 °C; under `*CC(*)OC(=O)c1ccccc1C` (repeat unit), 42.50 °C.
Under `*CC(*)OC(=O)c1ccccc1OC` (repeat unit) stands 65.00 °C; under `*CC(*)OC(=O)c1ccccc1OC(C)=O` (repeat unit), 59.50 °C.
`*CC(*)OC(=O)c1ccncc1` (repeat unit) returned a glass transition temperature of 98.50 °C.
In turn, `*CC(*)OC(=O)c1nn(C(C)=O)c2ccccc12` (repeat unit) came in with a glass transition temperature of 150.00 °C.
Under `*CC(*)OC(F)(C(F)(F)F)C(F)(F)F` (repeat unit) stands 65.00 °C; under `*CC(*)OCC(C)(C)CC` (repeat unit), 9.00 °C; under `*CC(*)OCC(CC)CCCC` (repeat unit), -66.00 °C.
Under `*CC(*)OCCCCCCCCCCCOc1ccc(C(=O)Oc2ccc(C#N)cc2)cc1` (repeat unit) stands 37.00 °C.
Under `*CC(*)OCCCCCCCCCCCOc1ccc(C(=O)Oc2ccc(OCC)cc2)cc1` (repeat unit) stands 37.00 °C.
Turning to `*CC(*)OCCOc1ccc(/C=C(\C#N)C(=O)OC)cc1` (repeat unit), the glass transition temperature stood at 47.00 °C.
Then `*CC(*)O[N+](=O)[O-]` (repeat unit), with 37.50 °C; and `*CC(*)P(=O)(c1ccccc1)c1ccccc1` (repeat unit), with 127.50 °C; and `*CC(*)S(=O)(=O)c1ccccc1` (repeat unit), with 128.00 °C.
Under `*CC(*)[Si](C)(C)C` (repeat unit) stands 137.00 °C; under `*CC(*)c1c(F)c(F)c(C(F)(F)F)c(F)c1F` (repeat unit), 112.00 °C.
As for `*CC(*)c1c(F)c(F)c(OCC(F)(F)C(F)(F)C(F)(F)C(F)(F)C(F)(F)C(F)(F)C(F)(F)F)c(F)c1F` (repeat unit), the glass transition temperature is 21.00 °C.
Under `*CC(*)c1c(F)c(F)c(OCC(F)(F)C(F)(F)F)c(F)c1F` (repeat unit) stands 61.00 °C; under `*CC(*)c1c([2H])c([2H])c([2H])c([2H])c1[2H]` (repeat unit), 100.00 °C; under `*CC(*)c1cc(-c2ccc(C(=O)OC3CC(C)CCC3C(C)C)cc2)ccc1-c1ccc(C(=O)OC2CC(C)CCC2C(C)C)cc1` (repeat unit), 217.50 °C.
Then `*CC(*)c1cc(Br)ccc1OCCC` (repeat unit), with 54.00 °C; and `*CC(*)c1cc(Br)ccc1OCCC(C)C` (repeat unit), with 37.00 °C.
Under `*CC(*)c1cc(C(=O)OCC)ccc1-c1ccc(OCCCCCCCC)cc1` (repeat unit) stands 95.00 °C.
`*CC(*)c1cc(C)c(C)cc1C` (repeat unit) gave a glass transition temperature of 104.00 °C.
In turn, `*CC(*)c1cc(OC)c(O)c(OC)c1` (repeat unit) showed a glass transition temperature of 147.00 °C.
Under `*CC(*)c1ccc(-c2ccc3c(c2)C(CCCCCC)(CCCCCC)c2cc(-c4ccc5c(c4)C(CCCCCC)(CCCCCC)c4ccccc4-5)ccc2-3)cc1` (repeat unit) stands 78.60 °C; under `*CC(*)c1ccc(-c2ccc3c(c2)C(CCCCCC)(CCCCCC)c2ccccc2-3)cc1` (repeat unit), 81.2 °C.
`*CC(*)c1ccc(B(O[Si](C)(C)C)O[Si](C)(C)C)cc1` (repeat unit) returned a glass transition temperature of 84.00 °C.
Regarding `*CC(*)c1ccc(B(Oc2ccc(B3OC(C)(C)C(C)(C)O3)c3cccnc23)c2ccc(C(C)(C)C)cc2)cc1` (repeat unit), the glass transition temperature is 275.00 °C.
For the compound `*CC(*)c1ccc(C#N)cc1` (repeat unit), the glass transition temperature worked out at 180.00 °C.
Then `*CC(*)c1ccc(C(=O)CCC)cc1` (repeat unit), with 74.00 °C; and `*CC(*)c1ccc(C(=O)CCCCC)cc1` (repeat unit), with 66.00 °C; and `*CC(*)c1ccc(C(=O)CCN2CCOCC2)cc1` (repeat unit), with 41.00 °C.
Then `*CC(*)c1ccc(C(=O)N(CC)CC)cc1` (repeat unit), with 102.00 °C.
`*CC(*)c1ccc(C(=O)N2CCOCC2)cc1` (repeat unit) gave a glass transition temperature of 127.00 °C.
Under `*CC(*)c1ccc(C(=O)OCCN(C)C)cc1` (repeat unit) stands 91.00 °C.
For `*CC(*)c1ccc(C(C)(O)CC)cc1` (repeat unit), the glass transition temperature stood at 190.00 °C.
The compound `*CC(*)c1ccc(C(C)(O)CCCCC)cc1` (repeat unit) yielded a glass transition temperature of 100.00 °C.
Under `*CC(*)c1ccc(C(F)(F)C(F)(F)C(F)(F)C(F)(F)C(F)(F)C(F)(F)C(F)(F)F)cc1` (repeat unit) stands 42.00 °C; under `*CC(*)c1ccc(C(O)CCN2CCOCC2)cc1` (repeat unit), 50.00 °C.
Then `*CCCCCCN(CC(F)(F)C(F)(F)F)C(=O)C(F)(F)C(F)(F)C(F)(F)C(=O)N(*)CC(F)(F)C(F)(F)F` (repeat unit), with 174.00 °C; and `*CCCCCCOc1ccc(C(=O)N(C(=O)c2ccc(O*)cc2)c2cccc3ccccc23)cc1` (repeat unit), with 56.00 °C; and `*CCCCCCOc1ccc(C(=O)N(C(=O)c2ccc(O*)cc2)c2ccccc2)cc1` (repeat unit), with 100.00 °C.
Take `*COc1ccc(C(=C(Cl)Cl)c2ccc(O*)cc2)cc1` (repeat unit): the glass transition temperature was determined as 108.00 °C.
Then `*c1ccc(C#Cc2cc(OCCCCCCCC)c(C#Cc3ccc(-c4nnc(*)o4)cc3)cc2OCCCCCCCC)cc1` (repeat unit), with 130.00 °C.
